{
  "source": "paper PMC11048482",
  "about": "(Biomolecules, 2024)",
  "biological_target": "T1, SP_0166 (Streptococcus pneumoniae, UniProt A0A0H2UNA7)",
  "T1 construct": "full length, 368 residues, 42,757 Da; pET-28a(+) BamHI/XhoI, C-terminal 6xHis tag kept; expressed in E. coli BL21(DE3)",
  "T1 sequence (A0A0H2UNA7 entry or part of it)": "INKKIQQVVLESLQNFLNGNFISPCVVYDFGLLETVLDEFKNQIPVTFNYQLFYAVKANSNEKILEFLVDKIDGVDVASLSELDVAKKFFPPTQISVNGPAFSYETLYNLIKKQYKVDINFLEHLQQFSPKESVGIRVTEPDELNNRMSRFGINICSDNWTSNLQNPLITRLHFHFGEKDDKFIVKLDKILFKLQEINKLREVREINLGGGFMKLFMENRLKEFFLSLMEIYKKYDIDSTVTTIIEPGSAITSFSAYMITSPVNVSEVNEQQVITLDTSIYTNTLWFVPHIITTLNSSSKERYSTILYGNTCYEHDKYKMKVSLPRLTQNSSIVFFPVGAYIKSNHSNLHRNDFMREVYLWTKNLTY",
  "test": "LC-MS/MS of agmatine formed from arginine",
  "assay_type": "biochemical",
  "note": "Read-outs that look alike come from different tables or passages of the source.",
  "data": [
    {"smiles": "N=C(N)NCCCC(N)(C(=O)O)C(F)F", "note": "(centres unmarked) [DFMA]", "values": [
      {"measurement": "IC50", "setting": "read-out: DFMA IC50", "value": "0.0216 ± 0.0104", "unit": "mM"}
    ]},
    {"smiles": "NCCCC(N)(C(=O)O)C(F)F", "note": "(centres unmarked) [DFMO]", "values": [
      {"measurement": "IC50", "setting": "read-out: DFMO IC50", "value": "27 ± 4.5", "unit": "mM"}
    ]}
  ]
}
